According to PubChem BioAssay AID248 (DTP/NCI, 2004):
Several values for one entry are separate records, joined by “and”; a condition that tells them apart may be missing. Equal entries are not always repeated. Toxic doses and inconclusive results are not listed. Cut-off read from the data, not from the text of the source: active = T/C of 150% or more; inactive = T/C below 125%.

Tested on: L1210 leukemia ip in BDF1 mice, survival T/C
Test: NCI In Vivo Anticancer Drug Screen. Data for tumor model L1210 Leukemia (intraperitoneal) in B6D2F1 (BDF1) mice
Settings: endpoint: mean survival time, higher = longer survival
Method in brief: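 Mice bearing the transplanted tumor received compound or vehicle. Survival of the treated group was divided by that of the vehicle-treated control group to give the ratio.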

[1] = dose: 100.0 mg/kg/injection, schedule: Q04DX002 (ip), vehicle: Klucel (hydroxypropylcellulose) (HPC)
[2] = dose: 200.0 mg/kg/injection, schedule: Q04DX002 (ip), vehicle: Klucel (hydroxypropylcellulose) (HPC)
[3] = dose: 400.0 mg/kg/injection, schedule: Q04DX002 (ip), vehicle: Klucel (hydroxypropylcellulose) (HPC)
[4] = dose: 100.0 mg/kg/injection, schedule: Q04DX003 (ip), vehicle: Klucel (hydroxypropylcellulose) (HPC)
[5] = dose: 200.0 mg/kg/injection, schedule: Q04DX003 (ip), vehicle: Klucel (hydroxypropylcellulose) (HPC)
[6] = dose: 100.0 mg/kg/injection, schedule: Q04DX003 (ip), vehicle: saline with Tween-80
[7] = dose: 200.0 mg/kg/injection, schedule: Q04DX003 (ip), vehicle: saline with Tween-80
[8] = dose: 400.0 mg/kg/injection, schedule: Q04DX003 (ip), vehicle: saline with Tween-80
[9] = dose: 100.0 mg/kg/injection, schedule: Q01DX009 (ip), vehicle: saline with Tween-80
[10] = dose: 200.0 mg/kg/injection, schedule: Q01DX009 (ip), vehicle: saline with Tween-80
[11] = dose: 400.0 mg/kg/injection, schedule: Q01DX009 (ip), vehicle: saline with Tween-80
[12] = dose: 400.0 mg/kg/injection, schedule: Q04DX003 (ip), vehicle: Klucel (hydroxypropylcellulose) (HPC)

Measured: T/C

O=C(NCCCNC(=O)Nc1ccc(C2=NCC(O)CN2)cc1)Nc1ccc(C2=NCC(O)CN2)cc1 (stereo unspecified)
inactive: dose: 30.7 mg/kg/injection, schedule: Q01DX015 (ip), vehicle: methylcellulose (MC) 104 % of control | dose: 61.5 mg/kg/injection, schedule: Q01DX015 (ip), vehicle: methylcellulose (MC) 95 % of control

CC1C[N-]CC(C)C1.CC1C[N-]CC(C)C1.[Cl][Pt+2]([Cl])([Cl])[Cl] (stereo unspecified)
inactive: dose: 12.5 mg/kg/injection, schedule: Q01DX009 (ip), vehicle: saline 107 % of control | dose: 12.5 mg/kg/injection, schedule: Q04DX003 (ip), vehicle: saline 87 % of control | dose: 25.0 mg/kg/injection, schedule: Q01DX009 (ip), vehicle: saline 102 % of control | dose: 25.0 mg/kg/injection, schedule: Q04DX003 (ip), vehicle: saline 87 % of control | dose: 50.0 mg/kg/injection, schedule: Q04DX003 (ip), vehicle: saline 95 % of control and 106 % of control | dose: 100.0 mg/kg/injection, schedule: Q04DX003 (ip), vehicle: saline 91 % of control

CCCCNC(=S)NC(=O)c1ccc(Br)cc1
inactive: [1] 97 % of control | [2] 97 % of control | [3] 90 % of control

O=[N+]([O-])c1ccc(S(=O)(=O)/N=C2\CCS(=O)(=O)c3ccccc32)cc1
inactive: dose: 100.0 mg/kg/injection, schedule: Q01DX001 (ip), vehicle: saline 92 % of control | dose: 200.0 mg/kg/injection, schedule: Q01DX001 (ip), vehicle: saline 92 % of control | dose: 400.0 mg/kg/injection, schedule: Q01DX001 (ip), vehicle: saline 93 % of control

COc1ccc(NC(=O)Oc2ccccc2Cc2ccccc2)cc1
inactive: dose: 50.0 mg/kg/injection, schedule: Q01DX009 (ip), vehicle: Klucel (hydroxypropylcellulose) (HPC) 95 % of control | dose: 100.0 mg/kg/injection, schedule: Q01DX009 (ip), vehicle: Klucel (hydroxypropylcellulose) (HPC) 94 % of control | [4] 97 % of control | dose: 200.0 mg/kg/injection, schedule: Q01DX009 (ip), vehicle: Klucel (hydroxypropylcellulose) (HPC) 103 % of control | [5] 91 % of control

CCCCCCCCCCCCCCCCCC(CC)c1ccccc1 (stereo unspecified)
inactive: dose: 100.0 mg/kg/injection, schedule: Q01DX001 (ip), vehicle: saline with Tween-80 104 % of control | dose: 200.0 mg/kg/injection, schedule: Q01DX001 (ip), vehicle: saline with Tween-80 94 % of control | dose: 400.0 mg/kg/injection, schedule: Q01DX001 (ip), vehicle: saline with Tween-80 94 % of control

c1ccc([Si]2(c3ccccc3)c3ccccc3-c3ccccc32)cc1
inactive: [6] 94 % of control | [7] 87 % of control | [8] 87 % of control

CC(C)C12OC1CC1C3(C)CCCC(C)(C(=O)O)C3CCC13OC32 (stereo unspecified)
inactive: [9] 98 % of control | [6] 90 % of control | [10] 96 % of control | [7] 90 % of control | [11] 93 % of control | [8] 90 % of control

Cc1cccc(OC(=O)Nc2ccccc2C)c1
inactive: [1] 103 % of control | [2] 118 % of control | [3] 100 % of control

O=C(Nc1ccc(I)cc1)c1ccc([N+](=O)[O-])cc1
inactive: [1] 99 % of control | [2] 101 % of control | [3] 115 % of control

CCOc1ccc(Br)cc1C=O
inactive: [9] 97 % of control | [6] 97 % of control | [10] 91 % of control | [7] 97 % of control | [11] 91 % of control | [8] 101 % of control

O=Cc1cc2cccnc2s1
inactive: [4] 103 % of control | [5] 100 % of control | [12] 100 % of control

NC(CSSCC(N)=NCC12CC3CC(CC(C3)C1)C2)=NCC12CC3CC(CC(C3)C1)C2
inactive: dose: 100.0 mg/kg/injection, schedule: Q04DX002 (ip), vehicle: saline with Tween-80 97 % of control | dose: 200.0 mg/kg/injection, schedule: Q04DX002 (ip), vehicle: saline with Tween-80 105 % of control

CCOC(=O)CCc1c(C(=O)OCC)[nH]c(C)c1C(=O)O
inactive: [4] 95 % of control | [5] 98 % of control | [12] 97 % of control
